From ChEMBL document CHEMBL1159113, “Investigation of Beckett-Casy model 1: synthesis of novel 16,17-seco-naltrexone derivatives and their pharmacology” (Bioorg Med Chem Lett, 2010)

Legend:
Mu-type opioid receptor = Mu-type opioid receptor (Cavia porcellus, UniProt P97266); assay: Displacement of [3H]DAMGO from mu opioid receptor in guinea pig forebrain
[1] = Displacement of [3H]NTI from delta opioid receptor in guinea pig forebrain; parameters: species or system Cavia porcellus
[2] = target: Kappa-type opioid receptor (Cavia porcellus, UniProt P41144); assay: Displacement of [3H]U69,593 from kappa opioid receptor in guinea pig cerebellum; format: tissue-based
Chain of Kappa-type opioid receptor (P41144 whole entry): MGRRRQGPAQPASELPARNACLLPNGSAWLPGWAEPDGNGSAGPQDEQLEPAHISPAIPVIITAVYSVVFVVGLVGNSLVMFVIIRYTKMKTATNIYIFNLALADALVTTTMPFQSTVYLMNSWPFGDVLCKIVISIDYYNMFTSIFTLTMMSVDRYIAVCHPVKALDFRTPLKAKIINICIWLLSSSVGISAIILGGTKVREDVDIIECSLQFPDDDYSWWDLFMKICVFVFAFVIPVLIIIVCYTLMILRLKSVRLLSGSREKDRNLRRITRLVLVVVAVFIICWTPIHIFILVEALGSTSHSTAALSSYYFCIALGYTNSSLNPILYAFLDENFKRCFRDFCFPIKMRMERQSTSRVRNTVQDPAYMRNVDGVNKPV

Chain of Mu-type opioid receptor (P97266 whole entry): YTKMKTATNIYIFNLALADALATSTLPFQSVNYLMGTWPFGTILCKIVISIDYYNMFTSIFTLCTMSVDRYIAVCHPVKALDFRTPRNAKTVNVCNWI

CC[C@]12c3c4ccc(O)c3O[C@H]1C(=O)CC[C@@]2(O)[C@H](NCC1CC1)C4
Ki (Mu-type opioid receptor): 26.3 nM | Ki [1]: 24.1 nM | Ki [2]: 275 nM

C=C[C@]12c3c4ccc(O)c3O[C@H]1C(=O)CC[C@@]2(O)[C@H](NCC1CC1)C4
Ki (Mu-type opioid receptor): 8.6 nM | Ki [1]: 4.73 nM | Ki [2]: 193 nM

CN(CC1CC1)C1Cc2ccc(O)c3c2[C@@]2(CCn4ccnn4)[C@@H](O3)C(=O)CC[C@@]12O (stereo partly specified)
IC50 (Mu-type opioid receptor): > 1000 nM | IC50 [1]: > 1000 nM | IC50 [2]: > 1000 nM

CN(CC1CC1)[C@@H]1Cc2ccc(O)c3c2[C@@]2(CCO3)CC(=O)CC[C@@]12O
IC50 (Mu-type opioid receptor): > 1000 nM | IC50 [1]: > 1000 nM | IC50 [2]: > 1000 nM

CN(CC1CC1)[C@@H]1Cc2ccc(O)c3c2[C@]24CCO[C@]12CCC(=O)[C@@H]4O3
Ki (Mu-type opioid receptor): 24 nM | Ki [1]: 43.2 nM | IC50 [2]: > 1000 nM

C=C[C@]12c3c4ccc(O)c3O[C@H]1C(=O)CC[C@@]2(O)[C@H](N(C)CC1CC1)C4
Ki (Mu-type opioid receptor): 26.4 nM | Ki [1]: 39.7 nM | Ki [2]: 200 nM

CC[C@]12c3c4ccc(O)c3O[C@H]1C(=O)CC[C@@]2(O)[C@H](N(C)CC1CC1)C4
IC50 (Mu-type opioid receptor): > 1000 nM | Ki [1]: 77.6 nM | IC50 [2]: > 1000 nM
